These results are taken from ChEMBL document CHEMBL1123219, “Functional cholesteryl binding agents: synthesis, characterization, and evaluation of antibody binding to modified phospholipid vesicles” (J Med Chem, 1986).

Test [1] is filed under the species Homo sapiens. As to the kind of experiment: Compound was tested for human IgG protein binding at 1 mg/mL.
The species entered for test [2] is Homo sapiens. Description: Compound was tested for human IgG protein stability at 100 ug/mL. It counts as functional.
The species entered for test [3] is Homo sapiens. Description: Compound was tested for human IgG protein binding at 100 ug/mL.

In the case of `CC(C)CCCC(C)C1CCC2C3CC=C4CC(OCCCCCCO)CCC4(C)C3CCC12C` (stereo not drawn), the Binding was 31.9% in test [1] and 58.7% in test [3]. Further, in test [2], the Stability was found to be 86.4%.

With `CC(C)CCCC(C)C1CCC2C3CC=C4CC(OCCCCCCSCc5ccc(C(=O)ON6C(=O)CCC6=O)cc5)CCC4(C)C3CCC12C` (stereo not drawn), the Binding was found to be 43.3% in test [1] and 60.4% in test [3]. Besides, the Stability in test [2] worked out at 91.8%.

For the compound `CC(C)CCCC(C)C1CCC2C3CC=C4CC(OCCCCCCNC(=O)c5cccc(N6C(=O)C=CC6=O)c5)CCC4(C)C3CCC12C` (stereo not drawn), the Binding in test [1] turned out to be 39.5%; in test [3], 61.1%. This compound yielded a Stability in test [2] of 86%.

As to `CC(C)CCCC(C)C1CCC2C3CC=C4CC(OCCCCCC(=O)ON5C(=O)CCC5=O)CCC4(C)C3CCC12C` (stereo not drawn), the Binding was found to be 40.3% in test [1] and 77.5% in test [3]. This compound yielded a Stability in test [2] of 94.1%.

For the compound `CC(C)CCCC(C)C1CCC2C3CC=C4CC(OCCCCCCC(=O)ON5C(=O)CCC5=O)CCC4(C)C3CCC12C` (stereo not drawn), the Binding in test [1] was found to be 46%; in test [3], 69.5%. The compound further gave a Stability in test [2] of 91%.

Take `CC(C)CCCC(C)C1CCC2C3CC=C4CC(OCCCCCCN=C=S)CCC4(C)C3CCC12C` (stereo not drawn): the figures for the Binding in test [1] and in test [3] were 31.9% and 55.9%, respectively. Also, the Stability in test [2] is 86.5%.
